Experimental data from US20210388018A1, “METHYL AND ETHYL NICOTINATE-RIBOSIDE-5-PHOSPHATES, PREPARATION THEREOF AND METHODS OF USE THEREOF” (Cornell University, priority 2018, published 2021).
“And” between values parts separate entries of the source, which are not always exact repeats. Identical values can stand only once.

Experiments:
Neuro2a cells = experiment: Intracellular NAD+ in Neuro2a cells after NaMN or NR (diaphorase-based assay); assay type: cell-based; details: 1 mM, 8 h incubation, FIG. 1
Method: (§1) The ability of nicotinic acid mononucleotide, NaMN, to serve as an NAD^+ enhancing agent in mammalian cell lines, Neuro2a and HEK293 cells was examined after an 8 h incubation. NaMN was added to cell growth media at a concentration of 1 mM. All cell treatments were done in duplicate. Nicotinamide riboside (NR) at 1 mM concentration was performed as a positive control. Untreated cells served as negative controls. Cells were treated for the allotted time then harvested by trysin detachment and pelleting. Cells were counted by haemocytometer and then lysed by treatment with 100 μL perchloric acid (7%). Lysates were then neutralized by treatment with NaOH and K2PO4 solutions. NAD^+ concentrations were determined by a diaphorase-based assay. NAD^+ standards were also run to establish a standard curve. The results are graphically depicted in FIG. 1.

HEK293 cells [1] = experiment: Intracellular NAD+ in HEK293 cells after NaMN or NR (diaphorase-based assay); assay type: cell-based, human; details: HEK293, 1 mM, 8 h incubation, FIG. 1
Method: as §1

HEPG2 cells = experiment: Cellular NAD at 14 h in HEPG2 cells (cycling assay); assay type: cell-based; parameters: unit not given here
Method: (§2) Neu2a, HEK293, HEPG2 and C2C12 cells were cultured and the dosage of the corresponding compound was increased by amounts of 0, 100 μM, 400 μM and 800 μM for each cell line. Each experiment was performed in triplicate. Cells were incubated for a period of 14 hr. At termination of incubation, media was removed and cells were treated with trypsin to gently detach and cells counted. Cell pellets were obtained by centrifugation, and then […] of 7% perchloric acid was added to extract NAD. Extracts obtained were then neutralized by addition of NaOH and 250 mM potassium phosphate buffer pH 8.5. NAD was determined by a cycling assay that measures NAD concentrations by comparison to a standard curve (Li et al., 2015).

HEK293 cells [2] = experiment: Cellular NAD at 14 h in HEK293 cells (cycling assay); assay type: cell-based, human; parameters: unit not given here
Method: as §2

C2C12 cells = experiment: Cellular NAD at 14 h in C2C12 cells (cycling assay); assay type: cell-based, murine; parameters: cellular NAD: unit not given here
Method: as §2

Neu2a cells = experiment: Cellular NAD at 14 h in Neu2a cells (cycling assay); assay type: cell-based; parameters: cellular NAD: unit not given here
Method: as §2

[3] = system: tissue NAD concentrations; experiment: Tissue NAD concentrations in mice 4 h after i.p. injection (cycling assay); assay type: in vivo; details: 500 mg/kg i.p. single dose, vs PBS control
Method: Sterile solutions of O-methyl-NaMN and O-ethylNaMN were prepared by combination with phosphate buffered saline for injection into mice. Mice were injected by intraperitoneal injection at a single dosage of 500 mg/kg. All mice were weighed to achieve correct injection volume. Each group was composed of 5 mice, and mice were sacrificed at 4 hours. Control mice received only PBS. At sacrifice, mice were first injected with an anesthetic dose of ketamine to obtain blood by cardiac puncture. Then mice were euthanized and tissues harvested and frozen immediately in liquid nitrogen.
To determine tissue NAD concentrations, tissues were weighed and pulverized in liquid nitrogen. Perchloric acid (7%) was then added to pulverized tissue samples and neutralized by NaOH and 250 mM potassium phosphate buffer pH 8.5. Samples were pelleted to remove insoluble material. NAD concentrations were determined by cycling assay as published (Li et al., Methods in molecular biology 1241, 39-48, doi:10.1007/978-1-4939-1875-1_4 (2015)). […] This property is desirable, as effects expected from NAD enhancement in muscle include mitochondrial biogenesis and improved insulin sensitivity, as noted for other agents that increase NAD concentrations in this tissue^3. In fact, the extent of NAD raising exceeds those observed for other agents.

HEK-293 cells = experiment: NAD+ concentration in HEK-293 cells after 24 h EtNaMN (NAD+ cycling assay); assay type: cell-based, human
Method: HEK-293 cells were treated with 0 μM, 250 μM, and 500 μM of ((2R,3R,4S,5R)-3,4-dihydroxy-5-(3-(ethoxycarbonyl)pyridin-1-ium-1-yl)tetrahydrofuran-2-yl)methyl hydrogen phosphate (EtNaMN) at an initial density of 500,000 cells per well. After 24 h treatment, the NAD^+ concentration was determined using a known NAD^+ cycling assay (Jacobson, E. L. et al., Arch. Biochem. Biophys., 175: 627-634 (1976)). The cells were washed with PBS, counted by haemocytometry and pelleted. The cells were then treated with 7% perchloric acid, and then neutralized with 1 M NaOH and 500 mM potassium phosphate pH 8.5. NAD^+ contents were then measured on a plate reader using diaphorase and lactate dehydrogenase using Resazurin as a dye that is reduced to rezarufin (emission 560 nm). NAD^+ levels were quantitated using a standard curve using known NAD^+ concentrations. NAD^+ concentrations are determined to nmol NAD^+/10^6 cells.

SMILES: O=C(O)c1ccc[n+]([C@@H]2O[C@H](COP(=O)(O)O)[C@@H](O)[C@H]2O)c1 [NaMN, nicotinic acid mononucleotide]
- intracellular NAD+ content vs untreated cells (Neuro2a cells): No intracellular increase in NAD^+
- intracellular NAD+ content vs untreated cells (HEK293 cells [1]): No intracellular increase in NAD^+

SMILES: COC(=O)c1ccc[n+]([C@@H]2O[C@H](COP(=O)([O-])O)[C@H](O)[C@@H]2O)c1 [O-MeNaMN, ((2R,3R,4S,5R)-3,4-dihydroxy-5-(3-(methoxycarbonyl)pyridin-1-ium-1-yl)tetrahydrofuran-2-yl)methyl hydrogen phosphate]
- cellular NAD (HEPG2 cells; HEPG2, 100 μM): 2227 ± 280
- cellular NAD (HEPG2 cells; HEPG2, 400 μM): 1663 ± 61
- cellular NAD (HEPG2 cells; HEPG2, 800 μM): 2383 ± 155
- cellular NAD (HEK293 cells [2]; HEK293, 100 μM): 1178 ± 65
- cellular NAD (HEK293 cells [2]; HEK293, 400 μM): 947 ± 101
- cellular NAD (HEK293 cells [2]; HEK293, 800 μM): 1440 ± 204
- cellular NAD (C2C12 cells; C2C12, 100 μM): 2864 ± 565
- cellular NAD (C2C12 cells; C2C12, 400 μM): 2596 ± 572
- cellular NAD (C2C12 cells; C2C12, 800 μM): 2574 ± 355
- increase in cellular NAD concentrations vs control (C2C12 cells; all concentrations tested (100, 400, 800 μM), cell line not given, figures fit C2C12): at least 70%
- cellular NAD (Neu2a cells; 100 μM): 1204 ± 158
- cellular NAD (Neu2a cells; 400 μM): 1523 ± 145
- cellular NAD (Neu2a cells; 800 μM): 2125 ± 187
- increase in cellular NAD concentrations vs control (fold, in words) (Neu2a cells; 800 μM): more than two fold
- increase in tissue NAD, blood [3]: Neither ethyl nor methyl derivatives appeared active as NAD enhancers in blood
- increase in tissue NAD, kidney [3]: ~2.5 fold
- increase in tissue NAD, skeletal muscle [3]: unique capability to increase skeletal muscle NAD concentrations

SMILES: CCOC(=O)c1ccc[n+]([C@@H]2O[C@H](COP(=O)([O-])O)[C@H](O)[C@@H]2O)c1 [O-EtNaMN, ((2R,3R,4S,5R)-3,4-dihydroxy-5-(3-(ethoxycarbonyl)pyridin-1-ium-1-yl)tetrahydrofuran-2-yl)methyl hydrogen phosphate]
- NAD+ Concentration (HEK-293 cells; HEK293, 250 μM EtNaMN): 220 μM ± 42 μM
- NAD+ Concentration relative to control (HEK-293 cells; HEK293, 250 μM EtNaMN): 1.29 and 1.29 ± 0.24
- NAD+ Concentration (HEK-293 cells; HEK293, 500 μM EtNaMN): 270 μM ± 35 μM
- NAD+ Concentration relative to control (HEK-293 cells; HEK293, 500 μM EtNaMN): 1.59 and 1.59 ± 0.21
- cellular NAD (HEPG2 cells; HEPG2, 100 μM): 2222 ± 99
- cellular NAD (HEPG2 cells; HEPG2, 400 μM): 2331 ± 429
- cellular NAD (HEPG2 cells; HEPG2, 800 μM): 2287 ± 181
- cellular NAD (HEK293 cells [2]; HEK293, 100 μM): 1128 ± 95
- cellular NAD (HEK293 cells [2]; HEK293, 400 μM): 1144 ± 132
- cellular NAD (HEK293 cells [2]; HEK293, 800 μM): 1133 ± 168
- increase in NAD concentrations vs control (C2C12 cells; 800 μM, cell line not given, figures fit C2C12): 68%
- cellular NAD (C2C12 cells; C2C12, 100 μM): 1886 ± 183
- cellular NAD (C2C12 cells; C2C12, 400 μM): 1766 ± 69.5
- cellular NAD (C2C12 cells; C2C12, 800 μM): 2320 ± 208
- cellular NAD (Neu2a cells; 100 μM): 1624 ± 24
- increase in cellular NAD vs control (Neu2a cells; 100 μM): ~40%
- cellular NAD (Neu2a cells; 400 μM): 1727 ± 40.8
- cellular NAD (Neu2a cells; 800 μM): 1744 ± 151
- increase in cellular NAD concentrations vs control (Neu2a cells; 800 μM): 50%
- increase in tissue NAD, blood [3]: increases in blood were not apparent
- increase in tissue NAD, kidney [3]: approximately twofold
- increase in tissue NAD, liver ([3]; liver): greater than twofold
- increase in tissue NAD, skeletal muscle [3]: no apparent effect

SMILES: NC(=O)c1ccc[n+]([C@@H]2O[C@H](CO)[C@@H](O)[C@H]2O)c1 [NR, Nicotinamide riboside]
- intracellular NAD+ content vs untreated cells (Neuro2a cells): increased NAD^+ contents in cells
- intracellular NAD+ content vs untreated cells (HEK293 cells [1]): increased NAD^+ contents in cells
